Measurements taken from patent US9364479B2, “Use of a receptor-type kinase modulator for treating polycystic kidney disease” (SYMPHONY EVOLUTION, INC., priority 2010, dated 2016).
Where “and” joins values, the source holds several entries; their conditions need not be identical. Identical values can stand only once. Marks after values point to notes of the source that are not given here.

Legend:
Glutamate, Kainate Site = test: NovaScreen assay; assay type: binding
Leukotriene D4, LTD4 = biological target: T1, Leukotriene D4, LTD4 (Homo sapiens, UniProt Q9Y271); test: NovaScreen assay; assay type: binding; details: read-out: Inhibition, 10 μM XL-647
T1 construct: NovaScreen
T1 sequence (Q9Y271 whole entry): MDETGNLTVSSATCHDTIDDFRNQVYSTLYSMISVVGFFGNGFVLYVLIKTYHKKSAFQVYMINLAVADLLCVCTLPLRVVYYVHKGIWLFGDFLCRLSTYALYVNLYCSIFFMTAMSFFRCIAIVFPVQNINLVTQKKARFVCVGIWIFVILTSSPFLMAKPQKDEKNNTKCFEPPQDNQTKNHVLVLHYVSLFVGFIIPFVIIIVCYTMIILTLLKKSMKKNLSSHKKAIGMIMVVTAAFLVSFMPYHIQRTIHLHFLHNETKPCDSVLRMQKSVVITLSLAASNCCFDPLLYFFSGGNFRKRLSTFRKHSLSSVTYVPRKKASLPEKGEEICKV

Testosterone (cytosolic) = biological target: T2, Testosterone (cytosolic) (Homo sapiens, UniProt P10275); test: NovaScreen assay; assay type: binding; details: read-out: Inhibition, 10 μM XL-647
T2 construct: NovaScreen
T2 sequence (P10275 whole entry): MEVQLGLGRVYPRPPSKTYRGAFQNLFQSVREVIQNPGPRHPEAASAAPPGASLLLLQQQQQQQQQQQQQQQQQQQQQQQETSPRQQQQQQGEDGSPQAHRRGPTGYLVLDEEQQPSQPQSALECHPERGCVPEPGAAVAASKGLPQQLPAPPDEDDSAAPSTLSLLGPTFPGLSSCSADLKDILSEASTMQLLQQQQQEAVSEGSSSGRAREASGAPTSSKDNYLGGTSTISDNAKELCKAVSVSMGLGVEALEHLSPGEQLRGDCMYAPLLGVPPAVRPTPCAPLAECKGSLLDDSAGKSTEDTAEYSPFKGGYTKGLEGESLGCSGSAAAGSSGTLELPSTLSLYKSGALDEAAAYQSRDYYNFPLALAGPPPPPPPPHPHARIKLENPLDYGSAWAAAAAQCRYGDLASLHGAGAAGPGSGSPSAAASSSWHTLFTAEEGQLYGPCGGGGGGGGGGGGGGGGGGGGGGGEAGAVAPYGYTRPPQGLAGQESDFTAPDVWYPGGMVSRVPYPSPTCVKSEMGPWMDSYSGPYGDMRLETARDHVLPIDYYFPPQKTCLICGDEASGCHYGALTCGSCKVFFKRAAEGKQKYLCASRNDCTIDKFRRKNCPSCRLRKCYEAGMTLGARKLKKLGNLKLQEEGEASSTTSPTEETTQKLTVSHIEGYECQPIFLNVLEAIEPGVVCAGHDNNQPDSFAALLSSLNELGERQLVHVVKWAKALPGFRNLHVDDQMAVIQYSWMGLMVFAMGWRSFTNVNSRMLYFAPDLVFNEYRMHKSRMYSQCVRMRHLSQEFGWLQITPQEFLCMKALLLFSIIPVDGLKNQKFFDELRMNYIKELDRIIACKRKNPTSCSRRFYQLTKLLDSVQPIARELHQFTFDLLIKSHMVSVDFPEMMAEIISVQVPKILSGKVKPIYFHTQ

[1] = tested on: MDA-MB-231 xenograft tumors; test: Immunohistochemistry of MDA-MB-231 xenograft tumors (Ki67, CD31); assay type: in vivo, mouse; details: 100 mg/kg, relative to vehicle
Method: (§1) For immunohistochemical analysis of H1975, MDA-MB-231 and other xenografts, tumors were excised after euthanasia and fixed in zinc fixative (BD Biosciences) for 48 h before being processed into paraffin blocks. Serial sections at 5 μm were obtained from the area of largest possible surface for each tumor and stained using standard methods. The following antibodies were used: Ki67 (SP6; Labvision), CD31 (MECA.32; BD Biosciences), pERK^Thr202/Tyr204 (phospho-p44/42 mitogen-activated protein kinase; Cell Signaling Technology), pAKT^Ser473 (Cell Signaling Technology), and pEGFR^Tyr1068 (Cell Signaling Technology). For immunofluorescent staining, sections were then incubated with Alexa 594-conjugated goat anti-rabbit secondary antibody (Invitrogen) and mounted in Fluorescent Mounting Medium (DAKO) containing 4′,6-diamidino-2-phenylindole (Molecular Probes) as a nuclear counterstain. Fluorescent staining was visualized using a Zeiss Axiolmager and digitally captured using a Zeiss high-resolution camera coupled to AxioVision image analysis software. Two to three nonoverlapping representative fields were captured at ×200 or ×400 magnification depending on histologic readout and quantified using the integrated morphometric analysis functions in Metamorph software (Universal Imaging Corp.). Apoptotic cells were detected using terminal deoxynucleotidyl transferase-mediated dUTP nick end labeling in situ cell death detection kit according to the manufacturer's instructions (Roche Diagnostics GmbH).
CD31-positive tumor vessels, Ki67-positive proliferating cells, and pERK staining in each tumor section were identified and quantified using the integrated morphometric analysis functions in the ACIS automatic cellular imaging system (Clarient, Inc.) and reviewed by a blinded observer. Number of CD31-positive vessels were identified across 5 to 10 randomly chosen fields of equal size at ×100 magnification in viable tumor tissue and calculated as number of vessels per square millimeter for each tumor, averaged for each treatment group, and compared with vehicle-treated controls. Percentage Ki67-positive cells were calculated as the ratio between Ki67-positive cells divided by the total number of cells identified across 5 to 10 randomly chosen fields of equal size in viable tumor tissue. The results for each tumor and treatment group were averaged and compared with vehicle-treated controls. The level of pERK staining was determined as described above and calculated as the ratio of antibody staining divided by the total number of cells identified, averaged for each treatment group, and compared with vehicle-treated controls.
Tumor proliferation was measured by staining for Ki67, which […]. The degree of tumor vascularization was measured by staining with the endothelial cell marker CD31 (Table 20).

Phospho-EGFR Tyr1068 = biological target: T3, Phospho-EGFR Tyr1068 (Homo sapiens, UniProt P00533, L858R/T790M); test: Immunohistochemical analysis of phosphorylation in H1975 xenografts; assay type: in vivo, mouse; details: 14-day dosing
T3 construct: host or cells: H1975 (cultured cells; s.c. xenografts in mice)
Method: as §1
Results are presented as mean±SD or SE as indicated for each graph or table. For IC50 comparison in the A431 cell viability experiment, two sample Student's t tests were applied to determine P values for each IC50 pair assuming that the random fluctuations of replicates around the dose-response curve are distributed [log]normally with the individual replicates used as the ‘sample size’ for the t test (nine point dose response done in triplicate).

Flt1 = Flt1 (Homo sapiens, UniProt P17948); test: Radiometric kinase assay; assay type: biochemical
Flt1, sequence (P17948 27-1338): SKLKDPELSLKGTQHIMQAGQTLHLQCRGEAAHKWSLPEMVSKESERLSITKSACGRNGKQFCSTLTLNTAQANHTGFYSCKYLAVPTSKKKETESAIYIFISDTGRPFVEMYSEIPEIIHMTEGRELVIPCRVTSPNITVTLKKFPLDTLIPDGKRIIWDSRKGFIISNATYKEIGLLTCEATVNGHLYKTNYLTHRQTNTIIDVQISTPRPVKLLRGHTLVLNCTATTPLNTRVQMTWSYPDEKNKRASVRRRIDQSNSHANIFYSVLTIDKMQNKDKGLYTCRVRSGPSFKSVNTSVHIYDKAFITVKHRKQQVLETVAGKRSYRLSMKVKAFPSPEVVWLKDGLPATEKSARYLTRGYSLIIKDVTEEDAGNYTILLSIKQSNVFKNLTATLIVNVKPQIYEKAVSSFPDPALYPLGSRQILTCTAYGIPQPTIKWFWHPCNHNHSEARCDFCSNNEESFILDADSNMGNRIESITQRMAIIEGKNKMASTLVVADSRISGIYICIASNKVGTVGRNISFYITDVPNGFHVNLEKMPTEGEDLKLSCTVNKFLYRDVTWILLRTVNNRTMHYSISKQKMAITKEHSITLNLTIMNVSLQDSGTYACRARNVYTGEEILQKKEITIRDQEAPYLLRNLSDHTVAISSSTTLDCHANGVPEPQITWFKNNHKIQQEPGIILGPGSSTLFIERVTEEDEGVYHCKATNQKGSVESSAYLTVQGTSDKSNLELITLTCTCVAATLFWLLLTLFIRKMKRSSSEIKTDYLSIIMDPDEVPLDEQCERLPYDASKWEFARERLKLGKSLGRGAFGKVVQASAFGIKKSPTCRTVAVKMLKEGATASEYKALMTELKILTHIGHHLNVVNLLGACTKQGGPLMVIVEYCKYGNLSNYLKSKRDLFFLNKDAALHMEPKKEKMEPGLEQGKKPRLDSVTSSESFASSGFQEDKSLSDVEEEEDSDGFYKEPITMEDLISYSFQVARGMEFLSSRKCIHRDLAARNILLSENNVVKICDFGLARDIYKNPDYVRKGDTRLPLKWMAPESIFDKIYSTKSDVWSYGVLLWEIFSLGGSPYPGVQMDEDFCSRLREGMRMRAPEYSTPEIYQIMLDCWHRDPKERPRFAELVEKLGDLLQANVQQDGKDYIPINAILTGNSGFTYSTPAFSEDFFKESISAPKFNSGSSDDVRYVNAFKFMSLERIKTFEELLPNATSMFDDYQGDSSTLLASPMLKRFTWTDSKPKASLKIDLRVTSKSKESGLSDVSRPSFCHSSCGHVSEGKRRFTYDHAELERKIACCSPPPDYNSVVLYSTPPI
Method: (§2) A radiometric ^33P-Phosphoryl transfer kinase assay was used to measure EphB4, insulin-like growth factor-I receptor (IGFR-1), and insulin receptor (IRK) activity. Reactions were performed in 384-well white, clear bottom, high-binding microtiter plates (Greiner). Plates were coated with 2 μg/well peptide substrate in a 50 μL volume. […] The coated plates were washed once with 50 μL assay buffer following overnight incubation at room temperature. Test compound and either 5 nmol/L EphB4 (residues E605-E890 of human EphB4 containing a six histidine NH2-terminal tag, expressed in a baculovirus expression system and purified using metal chelate chromatography), 4 nmol/L insulin-like growth factor-I receptor (residues M954-C1367 of human insulin-like growth factor-I receptor, Proqinase GmbH), or 15 nmol/L insulin receptor 1 (residues P948-S1343 of human insulin receptor 1, Proqinase) were combined with [^33P]g-ATP (5 μmol/L, 3.3 μCi/nmol) in a total volume of 20 μL. The reaction mixture was incubated at room temperature for 1.5 to 2.5 h and terminated by aspiration. The microtiter plates were subsequently washed six times with 0.05% Tween-PBS buffer. Scintillation fluid (50 μL/well) was added and incorporated ^33P was measured by liquid scintillation spectrometry using a MicroBeta scintillation counter (Perkin-Elmer). […]

Tie-2 = Tie-2 (Homo sapiens, UniProt Q02763); test: Radiometric kinase assay; assay type: biochemical
Tie-2, sequence (Q02763 23-1124): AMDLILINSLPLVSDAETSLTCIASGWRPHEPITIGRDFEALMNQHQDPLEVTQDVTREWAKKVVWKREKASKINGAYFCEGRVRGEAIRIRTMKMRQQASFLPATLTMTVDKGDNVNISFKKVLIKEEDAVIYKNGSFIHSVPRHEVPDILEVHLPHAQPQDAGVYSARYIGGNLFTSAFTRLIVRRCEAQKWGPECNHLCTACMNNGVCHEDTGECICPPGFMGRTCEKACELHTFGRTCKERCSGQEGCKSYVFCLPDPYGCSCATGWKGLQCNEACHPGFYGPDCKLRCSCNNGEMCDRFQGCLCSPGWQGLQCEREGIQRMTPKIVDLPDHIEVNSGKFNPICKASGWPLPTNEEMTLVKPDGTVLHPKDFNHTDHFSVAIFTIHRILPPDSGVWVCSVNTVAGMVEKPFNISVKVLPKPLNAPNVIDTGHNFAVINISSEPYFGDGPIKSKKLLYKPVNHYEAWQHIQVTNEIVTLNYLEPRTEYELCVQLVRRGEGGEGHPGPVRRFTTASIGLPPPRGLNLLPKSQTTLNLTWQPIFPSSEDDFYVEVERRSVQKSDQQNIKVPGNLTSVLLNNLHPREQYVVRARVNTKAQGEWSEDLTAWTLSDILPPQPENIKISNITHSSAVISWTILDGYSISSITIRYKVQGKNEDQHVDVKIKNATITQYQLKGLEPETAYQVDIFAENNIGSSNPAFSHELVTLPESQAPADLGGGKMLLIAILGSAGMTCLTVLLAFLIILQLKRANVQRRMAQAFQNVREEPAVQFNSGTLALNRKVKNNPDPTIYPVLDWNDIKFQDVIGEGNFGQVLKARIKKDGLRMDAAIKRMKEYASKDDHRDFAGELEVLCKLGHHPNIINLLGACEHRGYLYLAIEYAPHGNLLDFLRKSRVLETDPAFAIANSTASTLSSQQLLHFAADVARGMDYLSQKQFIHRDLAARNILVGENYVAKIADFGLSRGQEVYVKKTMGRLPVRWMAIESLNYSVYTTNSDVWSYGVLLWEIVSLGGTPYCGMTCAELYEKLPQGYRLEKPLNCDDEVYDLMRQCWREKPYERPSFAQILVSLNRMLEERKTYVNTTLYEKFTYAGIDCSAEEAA
Method: as §2

Galanin, Non-Selective = test: NovaScreen assay; assay type: binding
[2] = biological target: T4, Cholecystokinin, CCK2 (CCKB) (Homo sapiens, UniProt P32239); test: NovaScreen assay; assay type: binding; details: read-out: Inhibition, 10 μM XL-647
T4 construct: NovaScreen
T4 sequence (P32239 whole entry): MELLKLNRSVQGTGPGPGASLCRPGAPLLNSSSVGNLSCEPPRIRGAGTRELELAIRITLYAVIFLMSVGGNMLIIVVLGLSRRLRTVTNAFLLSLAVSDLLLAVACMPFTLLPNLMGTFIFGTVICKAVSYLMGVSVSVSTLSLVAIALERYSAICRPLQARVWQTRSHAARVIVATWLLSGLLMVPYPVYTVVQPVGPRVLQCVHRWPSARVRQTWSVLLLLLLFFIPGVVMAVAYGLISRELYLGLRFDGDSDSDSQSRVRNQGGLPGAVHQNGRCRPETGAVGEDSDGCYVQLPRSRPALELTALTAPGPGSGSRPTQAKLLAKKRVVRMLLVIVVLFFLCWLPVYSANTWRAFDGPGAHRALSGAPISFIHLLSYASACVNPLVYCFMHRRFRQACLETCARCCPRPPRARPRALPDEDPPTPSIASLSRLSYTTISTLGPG

SMILES: COc1cc2c(Nc3ccc(Cl)c(Cl)c3F)ncnc2cc1OC[C@@H]1C[C@@H]2CN(C)C[C@@H]2C1 [XL-647, N-(3,4-dichloro-2-fluorophenyl)-7-({[(3aR,5r,6aS)-2-methyloctahydrocyclopenta[c]pyrrol-5-yl]methyl}oxy)-6-(methyloxy)quinazolin-4-amine]
- Inhibition, 10 μM XL-647 (Glutamate, Kainate Site): 0.89%
- inhibition at 10 µM (Leukotriene D4, LTD4): -11.9%
- inhibition at 10 µM (Testosterone (cytosolic)): 18.1%
- CD31 (% Reduction) ([1]; 3 days): 76% and 76.5%
- Ki67 (% Reduction) ([1]; 3 days): 9.62%
- CD31 (% Reduction) ([1]; 5 days): 90.18%
- Ki67 (% Reduction) ([1]; 5 days): 33.8%
- CD31 (% Reduction) ([1]; 7 days): 95.7%
- Ki67 (% Reduction) ([1]; 7 days): 50% and 48.7%
- Phospho-EGFR Tyr1068 % Cells (Phospho-EGFR Tyr1068; 10 mg/kg): 14 ± 1.9%
- Phospho-EGFR Tyr1068 % Reduction (Phospho-EGFR Tyr1068; 10 mg/kg): 49.0^a %
- Phospho-EGFR Tyr1068 % Cells (Phospho-EGFR Tyr1068; 30 mg/kg): 12 ± 1.3%
- Phospho-EGFR Tyr1068 % Reduction (Phospho-EGFR Tyr1068; 30 mg/kg): 56.1^a %
- Phospho-EGFR Tyr1068 % Cells (Phospho-EGFR Tyr1068; 100 mg/kg): 10 ± 1.8%
- Phospho-EGFR Tyr1068 % Reduction (Phospho-EGFR Tyr1068; 100 mg/kg): 63.7^a %
- IC50 (Flt1): 56.5 ± 15.5 nM
- IC50 (Tie-2): 54 ± 13.4 nM
- Inhibition, 10 μM XL-647 (Galanin, Non-Selective): 1.57%
- inhibition at 10 µM [2]: 17.1%
